# Entries after “also recorded” stand apart in the source; their conditions may differ.
# Legend:
# [1] = tested on: human islets; assay: Binding of C3b/iC3b to human islets incubated in AB0-compatible hirudin-treated plasma (COPAS, confocal microscopy); type: cell-based
# Method: (§1) Complex object parametric analyzer and sorter (COPAS) analysis: The fluorescence-stained islets were analyzed using a complex object parametric analyzer and sorter (COPAS; Union Biometrica, Somerville, Mass.), which is a large-particle-based flow cytometry instrument. One thousand islets were collected using a 488/514 multi-line laser, and positive cells were sorted out for further analysis by confocal microscopy. The COPAS flow cytometry data were analyzed using CellQuest™ Pro software (BD Biosciences Immunocytometry Systems). Data are reported as mean fluorescent intensity (MFI).
# Confocal microscopy: Stained islets were contained in a drop of PBS in a small Petri dish and protected from light before examination in the confocal microscope (Zeiss 510 Meta confocal, Carl Zeiss, Jena, Germany). Examination of the stained islets was performed using the 488-nm laser at 10× magnification. […]
# FITC-labeled antibodies recognizing the following proteins were diluted and used according to the manufacturer's recommendations: Clq (AbCam, Cambridge, UK), C3c (for detection of C3b and iC3b), C4, C9, mannose-binding lectin (MBL), IgG, and IgM (DakoCytomation, Glostrup, Denmark). […] After washing, the islets were treated with 1% formaldehyde (Apoteket, Gothenburg, Sweden) and held on ice until analyzed by COPAS and confocal microscopy.
# [2] = tested on: C3a and sC5b-9; assay: C3a and sC5b-9 generation in supernatants of plasma-incubated human islets (ELISA); type: cell-based
# Method: (§2) Analysis of islets by COPAS and confocal microscopy: Approximately 5000 islets were added to 200 μl of human AB0-compatible hirudin-plasma or whole blood in heparinized test tubes. In some experiments, AB0-compatible hirudin-treated plasma was pre-incubated with or without 10 μM Ac-ICV(1MeW)[…]-NH2 (SEQ ID NO: 4; Katragadda et al., (2006) J Med Chem 49:4616-4622), a potent compstatin analog, for 15 minutes at 37° C. before the islets were added. The mixture of islets and plasma was incubated, with gentle shaking, at 37° C. for up to 30 minutes.
# (§3) After centrifugation and addition of 10 mM EDTA (final concentration), the supernatants were stored at −70° C. The remaining islets were washed twice in cold PBS as described above. […]
# C3a: Plasma was diluted 1/1000 in working buffer and analyzed as described previously (Enkdahl et al., 1992, Scand J Immunol 35: […]). […] Bound C3a was detected with biotinylated rabbit anti-C3a diluted 1/150, followed by HRP-conjugated streptavidin (Amersham, Little Chalfort, UK), diluted 1/500. […]
# sC5b-9: Plasma was analyzed using a modification of the EIA described by Mollnes et al., 1985, Scand J Immunol 22: 197-202. Plasma diluted 1/5 was added to microtiter plates coated with anti-neoC9 monoclonal antibody MCaE11. sC5b-9 was detected with a polyclonal anti-C5 antibody diluted 1/500 (Dako A/S, Denmark), followed by HRP-conjugated anti-rabbit Ig diluted 1/500 (Dako). […]
# [3] = tested on: human islets; assay: Lysis of islet cells, PI staining analysed by COPAS; type: cell-based; settings: AB0-compatible plasma, 37° C., 30 minutes, 10 μM compstatin
# Method: as §1, §2, §3
# [4] = tested on: human islets; assay: C-peptide release from human islets in AB0-compatible plasma (ELISA); type: cell-based; settings: 30 minutes at 37° C., 10 μM compstatin
# Method: as §2
# After centrifugation and addition of 10 mM EDTA (final concentration), the supernatants were stored at −70° C. The remaining islets were washed twice in cold PBS as described above. In order to visualize necrotic cells, propidium iodide (PI) was added to the islets 5 minutes before COPAS analysis. Islets that had not been incubated in plasma were used as controls. The islets were also examined by confocal microscopy.
# C-peptide: Plasma was diluted 1/200 and analyzed using a C-peptide ELISA (Mercodia, Uppsala, Sweden).
# [5] = tested on: porcine islets; assay: Binding of C3b/iC3b to porcine islets incubated in human hirudin-treated plasma; type: cell-based, pig; settings: compstatin 10 μM
# Method: Treatment of porcine islets with human plasma: Approximately 1000 pig islets/40 μL of plasma (typically 5000 islets in 200 μL) were incubated in human hirudin-treated plasma in heparinized test tubes. Five different islet preparations and five different plasma preparations were used in these experiments. In some experiments, hirudin-treated plasma was preincubated with 10 μM (final concentration) of the potent compstatin analog, Ac-ICV(1MeW)[…]-NH2 (SEQ ID NO: 4; Katragadda et al., (2006) J Med. Chem. 49 (15): 4616), for 15 minutes at 37° C. before the islets were added. The mixture of islets and plasma was then incubated, with gentle shaking, at 37° C. for up to 30 min. […]
# For all immunostaining experiments, the islets were incubated, while gently rotating on ice, for 30 minutes in the presence of an individual antibody. After being washed with PBS, the islets were treated with 1% formaldehyde (Apoteket, Gothenburg, Sweden) and kept on ice until analyzed.
# Complex object parametric analyzer and sorter (COPAS) analysis: The fluorescence-stained islets were analyzed using a complex object parametric analyzer and sorter (COPAS; Union Biometrica, Somerville, Mass.), which is a large particle-based flow cytometry instrument previously used for islet analysis (Fernandez et al., (2005) Transplantation 80 (6): 729). […]
# [6] = tested on: complement activation; assay: Complement inhibition assay in 10% human serum (bound C3 fragments in microtiter wells); type: biochemical
# Method: Complement inhibition assay: One hundred microliters of 10% human serum (v/v), diluted in veronal buffer with 1 mM Ca^2+, 0.3 mM Mg^2+, 1% (w/v) BSA, and 0.05% (v/v) Tween 20, was incubated in the presence of serially diluted LMW-DS and/or compstatin in wells of microtiter plates for 30 minutes at 37° C. The wells were then washed with PBS containing 0.05% (v/v) Tween 20, and the bound C3 fragments were detected using […], of HRP-conjugated anti-C3c (Dako AS, Glostrup, Denmark).
# [7] = Blood cell counts, liver and renal function in monkeys transplanted with porcine islets; type: in vivo, Cynomolgus monkeys (Macaca fascicularis); settings: 24 hours after islet transplantation; in U/L (unit assumed)
# [8] = Plasma APTT and LMW-DS concentration in transplanted monkeys; type: in vivo, Cynomolgus monkeys (Macaca fascicularis)
# Method: Blood samples: […] […] Analyses of blood and plasma samples: Activated Partial Thromboplastin Time (APTT) measurements were performed as previously described (Johansson et al., (2006) Am J. Transplant. 6 (2): 305).
# [9] = tested on: porcine islet grafts; assay: Histological evaluation of grafted pig islets 24 h after intraportal transplantation
# [10] = tested on: IBMIR
# Method: Blood samples: All blood samples from monkeys were drawn from a femoral vein catheter at 0, 20, and 40 min and at 1, 3 and 24 h after transplantation. Blood was drawn from healthy human blood donors into 7-mL tubes containing […] of hirudin, a specific inhibitor of thrombin (Refludan; Pharmion Ltd, Cambridge, UK). To obtain plasma, the samples were centrifuged at 4500×g for 5 min. If not immediately analyzed for activated partial thromboplastin time (APTT), the samples were stored at −70° C.
# Platelet counts and differential leukocyte counts were obtained using a Coulter ACT-diff analyzer (Beckman Coulter, Miami, Fla.) and EDTA-treated blood. Plasma levels of thrombin-antithrombin (TAT) were quantified using commercially available EIA kits (TAT, Behringswerke, Marburg, Germany). C3a generation was measured in plasma according to the method of Nilsson Ekdahl et al. ((1992) Scand J. Immunol. 35 (1): 85), and sC5b-9 was analyzed using a modification of the enzyme immunoassay described by Nilsson Ekdahl et al. ((1992) Scand J. Immunol. 35 (1): 85) and Mollnes et al. ((1995) Artif Organs 19 (9): 909).
# [11] = tested on: porcine islet grafts; assay: Immunohistochemical staining of grafted pig islets 24 h after intraportal transplantation
# [12] = both treated monkeys compared to the controls
substance,measurement,setting,value
Ac-ICV(1MeW)QDWGAHRCT-NH2 [compstatin],C3b/iC3b binding by confocal microscopy,"[1]; human islets in plasma, 5 and 30 minutes",totally prevented
same,binding of C3b/iC3b to the islets,"[1]; human islets, AB0-compatible plasma, compstatin 10 μM, COPAS",significantly reduced; also recorded: abolished
same,"generation of fluid-phase complement activation products (C3a, sC5b-9)","[2]; human islets, AB0-compatible plasma, compstatin 10 μM",abrogated
same,PI staining (lysis of islet cells),[3],totally abrogated
same,release of C-peptide,[4],totally inhibited
same,binding of C3b/iC3b to the islets,[5],significantly reduced
same,inhibition of complement activation,[6]; compstatin 5 μM,total inhibition
same,inhibition of complement activation,[6]; compstatin above 0.5 μM,gradually inhibited
same,inhibition of complement activation,[6]; compstatin below 0.5 μM,no effect
Heparin,ALT,[7],116.8±47.7
same,AST,[7],288.0±130.4
same,APTT,"[8]; heparin-treated monkeys, throughout the whole study period",25 to 40 s (s)
same,completely preserved islets (score 0 in all categories),[9]; control monkey M-10,22%
Low molecular weight dextran sulfate [LMW-DS],APTT,"[8]; LMW-DS-treated monkeys, 15 minutes after islet infusion",around 100 s
same,APTT,"[8]; monkey M-5, after 24 hours",101 s
same,APTT,"[8]; monkey M-7, after 24 hours",66 s
same,APTT,"[8]; monkey M-9, after 24 hours",107 s
same,increase of coagulation marker TAT,[10]; LMW-DS-treated monkeys vs heparin controls,effectively inhibited
same,complement activation parameter C3a,[10]; [12],suppressed
same,complement activation parameter sC5b-9,[10]; [12],suppressed
same,TAT,[10]; monkey M-5,totally suppressed
same,inhibition of complement activation,"[6]; LMW-DS above 100 mg/L, absence of compstatin",more pronounced
same,inhibition of complement activation,"[6]; LMW-DS between 10 and 100 mg/L, absence of compstatin",only marginally
same,histology of the transplanted grafts,"[9]; 24 h after transplantation, semiquantitative scoring",well kept
same,completely preserved islets (score 0 in all categories),[9]; monkey M-6 as printed,37.2%
same,completely preserved islets (score 0 in all categories),[9]; monkey M-9,44%
same,deposition of C3 fragment and C9 on the surface of the islets,[11]; 24 h grafts,no clear inhibition
same,CD3+ T cell infiltration,[11]; vs controls M8 and M10,effectively suppressed
same,CD68+ macrophages in grafts,"[11]; vs heparin controls, p=0.002",abrogated
same,neutrophil elastase positive PMNs in grafts,"[11]; vs heparin controls, p=0.04",abrogated
same,CD41+ platelets in grafts,"[11]; vs heparin controls, p=0.056",abrogated
hirudin,generation of C3a and sC5b-9,"[2]; islets in whole blood anticoagulated with hirudin, n=4",no effect
